{"source": "paper PMC8353398", "about": "(Frontiers in Pharmacology, 2021)", "key": {"rACE": {"test_system": "rACE", "assay": "Peptide stability, cleavage assay with purified rat ACE", "assay_type": "in vitro ADME", "settings": "purified rat ACE (final around 82 nM), 5 µL of 1 mM peptide in about 105 µL; 100 mM Tris-HCl pH 7.4, 100 mM NaCl, 10 µM ZnCl2; 37°C, 300 rpm; sampled 5-120 min; UPLC-MS SIM; repeated 3-5 times", "method": "(§1) Rat enzymes rACE2 and rNEP were purchased from Sino Biological (Beijing, China) while rACE was obtained from EMD Millipore (Burlington, MA, United States). Enzymes were dissolved in milli-Q water (at 1 μM for rACE2/rNEP and 1.65 μM for rACE), aliquoted and stored at -80°C, as recommended by suppliers. […] Before adding the enzyme, the blank sample (t = 0 min) was prepared by removing 10 μL of this mixture and quenched with 10 μL of EDTA 0.5 M. To initiate the enzymatic reaction, 5 μL of enzyme (1 μM or 1.65 μM) was added to the mixture (final enzyme concentration around 50 nM or 82 nM). This mixture was kept in an incubator at 37°C equipped with an orbital shaker (300 rpm). Ten μL was sampled at 5, 10, 20, 60, and 120 min from this mixture, and quenched with 10 μL EDTA 0.5 M (prepared in milli-Q water and filtered) to inactivate the enzyme. […] First analyses (t = 0 min, t = 120 min) scanned m/z from 300-1200 to evaluate if peptides are cleaved and peptide fragments will be detected. After identifying the m/z of peptides and fragments, peptides were quantified using single ion mode (SIM). […] Angiotensin II was used as reference substrate in the assay with rACE2 and rNEP and angiotensin I was used as reference substrate in the assay with rACE. Experiments were repeated 3-5 times."}, "[1]": {"test_system": "spontaneously hypertensive rats (SHR)", "assay": "Invasive hemodynamics and echocardiography after 6-week infusion in SHR rats", "settings": "for Diastolic AP / Mean AP / Systolic AP: pressure catheter", "method": "Male spontaneously hypertensive rats (SHR) and normotensive Wistar-Kyoto (WKY) rats were purchased from Charles River Laboratories (Kingston, ON, Canada) and maintained in a temperature-controlled room with a 12 h light/dark cycle at the animal facility of the Université de Sherbrooke. All animals were randomized with unique identification number into the different groups tested to maintain experimenter blinding. The study included six distinct SHR experimental groups (Table 1). Three groups received a standard rat chow diet containing 0.3% of NaCl (Charles River, ON, Canada) while the other three groups were fed a rat diet containing 8% of NaCl for 6 weeks (Research Diets, NJ, United States). Once a week, urine output and water intake were measured over 24 h using metabolic cages following 3 days of acclimatization. After 6 weeks of different salt intake regimens, the rats were anesthetized with 2% isoflurane for echocardiographic and hemodynamic measurements. Subsequently, blood samples were collected into tubes containing K2-EDTA and centrifuged at 2000 g for 10 min at 4°C before storing the plasma at −80°C. Plasma and urinary concentrations of sodium were determined by a vitros 750 XRC analyser (Johnson-Johnson Clinical Diagnostics; Rochester, NY). OCT-embedded sections of heart (7 µm) were generated and collagen fibers visualized by Masson’s trichrome staining. Immunohistochemistry stained slides were captured by an automated Hamamatsu Nanozoomer 2.0RS slide scanner (Hamamatsu Photonics). Heart and kidneys were also harvested, snap frozen in liquid nitrogen and stored at −80°C for mRNA expression analysis. All animal procedures were approved by our institutional ethical committee (protocol #2017–2115), in compliance with the policies and directives of the Canadian Council on Animal Care and with the ARRIVE guidelines.\nBriefly, 2-chlorotrityl chloride resin (2-CTC, 120 mg) was loaded with Fmoc-L-Phe-OH (0.85 mmol/g). Fmoc protecting group was removed by treating the resin with a 20% piperidine solution. The coupling steps were carried out using [hexafluorophosphate of O-(7-azabenzotriazol-1-yl)-1,1,3,3-tetramethyluronium] (HATU, 5 equiv), amino acid (5 equiv) and DIPEA (5 equiv). The final peptide was cleaved from resin using a cocktail of trifluoroacetic acid (TFA)/triisopropylsilane (TIPS)/ethanedithiol (EDT)/water (92.5/2.5/2.5/2.5) and purified by preparative HPLC (ACE5 C18 column 250 × 21.2 mm, 5 μm spherical particle size). […] Finally, peptide was purified by preparative HPLC.\nTransthoracic echocardiography was performed under isoflurane anesthesia (2%; […]; Baxter) with the Vevo 3,100 ultrasound apparatus using a MX250 transducer (FUJIFILM VisualSonics, ON, Canada). A short axis view of the left ventricle (LV) was obtained at the level of the papillary muscle and the M-mode tracing was recorded. LV End-Diastolic and End-Systolic Diameters (LVEDD; LVESD) were measured in order to calculate the fractional shortening (FS). Stroke volume was next calculated in order to assess Cardiac Output (CO) and Cardiac Index (CI). Pulse propagation velocity (PPV) was determined by ultrasound measurements of the abdominal aorta using EKV-image acquisition and analyzed with Vevo-Vasc software (FUJIFILM VisualSonics, ON, Canada). For invasive hemodynamic measurements, rats were intubated under isoflurane anesthesia (2%; […]; Baxter, IL, United States) and ventilated (SAR-1000, CWE). The right carotid artery was then cannulated with a pressure catheter (1.9F, Transonic, NY, United States) and advanced into the LV to record end-systolic and end-diastolic pressures."}, "[2]": {"test_system": "spontaneously hypertensive rats (SHR)", "assay": "Quantitative RT-PCR of pro-fibrotic and RAAS genes in heart and kidneys of treated SHR rats", "assay_type": "in vivo, rat", "settings": "high-salt diet, 10 nmol/kg/hr 6-week infusion, qRT-PCR, Rpl30 reporter", "method": "Total RNA was extracted from heart and kidneys using RNeasy Mini kits (Qiagen) according to the manufacturer’s protocol. iScript Reverse Transcription Supermix (Bio-Rad) was used to prepare cDNA from 1 µg of total RNA in 20 µL. Real-time PCR was performed on technical duplicates with cDNA diluted 30x in nuclease-free water and using SsoAdvanced™ Universal SYBR® Green Supermix (Bio-Rad) in a Mastercycler® ep RealPlex (Eppendorf). The Ribosomal protein L30 (Rpl30) of heart or kidney was used as a reporter gene and fold changes were obtained using the 2(-ΔΔCt) method ([Livak and Schmittgen, 2001]). Data were then normalized to SHR rats receiving a standard chow diet containing 0.3% of NaCl."}, "rACE2": {"biological_target": "T1, rACE2 (Rattus norvegicus, UniProt Q5EGZ1)", "T1 construct": "purchased Sino Biological (Beijing, China)", "T1 sequence (Q5EGZ1 18-805)": "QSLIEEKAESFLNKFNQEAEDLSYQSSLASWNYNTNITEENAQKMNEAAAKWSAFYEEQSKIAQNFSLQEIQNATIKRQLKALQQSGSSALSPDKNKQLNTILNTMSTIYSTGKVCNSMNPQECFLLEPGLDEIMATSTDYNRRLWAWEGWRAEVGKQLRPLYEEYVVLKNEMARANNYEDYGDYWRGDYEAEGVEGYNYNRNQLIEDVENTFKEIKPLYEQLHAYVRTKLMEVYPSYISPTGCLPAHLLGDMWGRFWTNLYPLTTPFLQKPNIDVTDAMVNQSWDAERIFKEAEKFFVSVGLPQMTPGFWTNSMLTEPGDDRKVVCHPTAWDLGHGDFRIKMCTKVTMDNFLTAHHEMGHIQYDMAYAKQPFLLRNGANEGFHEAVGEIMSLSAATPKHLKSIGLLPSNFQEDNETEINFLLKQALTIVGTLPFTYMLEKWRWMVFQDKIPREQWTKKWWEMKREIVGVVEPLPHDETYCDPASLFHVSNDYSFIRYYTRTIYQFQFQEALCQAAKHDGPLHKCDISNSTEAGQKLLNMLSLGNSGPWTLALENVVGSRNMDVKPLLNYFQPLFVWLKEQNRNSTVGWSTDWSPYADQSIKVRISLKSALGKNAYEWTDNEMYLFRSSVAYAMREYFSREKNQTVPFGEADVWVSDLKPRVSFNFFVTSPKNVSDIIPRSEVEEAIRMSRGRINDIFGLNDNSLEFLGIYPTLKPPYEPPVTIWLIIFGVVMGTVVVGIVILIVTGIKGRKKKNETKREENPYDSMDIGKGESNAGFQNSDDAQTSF", "assay": "Peptide stability, cleavage assay with purified rat ACE2", "assay_type": "in vitro ADME", "settings": "purified rat ACE2 (final around 50 nM), 5 µL of 1 mM peptide in about 105 µL; 100 mM Tris-HCl pH 7.4, 100 mM NaCl, 10 µM ZnCl2; 37°C, 300 rpm; sampled 5-120 min; UPLC-MS SIM; repeated 3-5 times", "method": "as §1"}, "rNEP": {"biological_target": "T2, rNEP (Rattus norvegicus, UniProt P07861)", "T2 construct": "purchased Sino Biological (Beijing, China)", "T2 sequence (P07861 1-750)": "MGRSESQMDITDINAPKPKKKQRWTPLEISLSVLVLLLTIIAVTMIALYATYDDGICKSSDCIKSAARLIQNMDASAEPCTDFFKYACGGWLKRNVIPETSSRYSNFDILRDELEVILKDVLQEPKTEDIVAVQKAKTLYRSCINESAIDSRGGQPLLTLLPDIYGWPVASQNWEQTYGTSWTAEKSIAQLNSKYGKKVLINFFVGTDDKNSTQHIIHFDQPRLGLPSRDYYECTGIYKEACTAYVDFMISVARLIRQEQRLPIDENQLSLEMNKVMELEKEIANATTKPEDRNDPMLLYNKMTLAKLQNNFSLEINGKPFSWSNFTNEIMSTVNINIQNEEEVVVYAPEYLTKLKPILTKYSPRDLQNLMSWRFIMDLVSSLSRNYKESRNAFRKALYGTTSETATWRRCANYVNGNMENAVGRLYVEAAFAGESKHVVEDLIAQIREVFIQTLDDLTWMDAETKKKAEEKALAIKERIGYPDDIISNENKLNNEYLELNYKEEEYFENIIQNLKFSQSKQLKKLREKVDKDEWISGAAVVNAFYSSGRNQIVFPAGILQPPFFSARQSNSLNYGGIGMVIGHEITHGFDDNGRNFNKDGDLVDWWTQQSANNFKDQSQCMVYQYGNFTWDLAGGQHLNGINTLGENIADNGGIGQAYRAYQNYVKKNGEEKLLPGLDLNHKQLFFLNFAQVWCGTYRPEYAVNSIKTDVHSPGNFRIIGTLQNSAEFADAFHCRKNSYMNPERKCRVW", "assay": "Peptide stability, cleavage assay with purified rat neprilysin", "assay_type": "in vitro ADME", "settings": "purified rat NEP (final around 50 nM), 5 µL of 1 mM peptide in about 105 µL; 100 mM Tris-HCl pH 7.4, 100 mM NaCl, 10 µM ZnCl2; 37°C, 300 rpm; sampled 5-120 min; UPLC-MS SIM; repeated 3-5 times", "method": "as §1"}, "[3]": {"test_system": "adult male Sprague-Dawley rats", "settings": "cecal-ligation puncture sepsis, 10 nmol/kg/hr, ref Coquerel et al., 2017; cited from earlier work", "text": "The final peptide was cleaved fr ..."}, "[4]": {"settings": "SHR, high-salt diet (8% NaCl), 10 nmol/kg/hr s.c. infusion 6 weeks, mean ± SEM, n = 6"}, "[5]": {"settings": "SHR, high-salt diet, 10 nmol/kg/hr s.c. infusion 6 weeks, echocardiography, mean ± SEM, n = 6"}, "[6]": {"settings": "SHR, normal-salt diet (0.3% NaCl), 10 nmol/kg/hr s.c. infusion 6 weeks, mean ± SEM, n = 5"}, "[7]": {"settings": "SHR, normal-salt diet, 10 nmol/kg/hr s.c. infusion 6 weeks, echocardiography, mean ± SEM, n = 5"}}, "data": [{"smiles": "CSCC[C@H](NC(=O)[C@@H]1CCCN1C(=O)CNC(=O)[C@H](CCCCN)NC(=O)[C@H](Cc1cnc[nH]1)NC(=O)[C@H](CO)NC(=O)[C@H](CC(C)C)NC(=O)[C@H](CCCNC(=N)N)NC(=O)[C@@H]1CCCN1C(=O)[C@H](CCCNC(=N)N)NC(=O)[C@@H]1CCC(=O)N1)C(=O)N1CCC[C@H]1C(=O)N[C@@H](Cc1ccccc1)C(=O)O", "note": "[Ape13, [Pyr^1]-Apelin-13]", "values": [{"measurement": "Cleavage by ACE within 2 h", "setting": "rACE", "value": "only partially"}, {"measurement": "Effect on cardiovascular damage caused by hypertension per se", "setting": "[1]; SHR on normal-salt intake compared to normotensive WKY, chronic treatment 6 weeks", "value": "does not prevent or reverse"}, {"measurement": "Effect on hypertension induced by a high-salt diet", "setting": "[1]; SHR, high-salt diet (8% NaCl), 10 nmol/kg/hr continuous 6-week infusion", "value": "no significant effect"}, {"measurement": "Weight", "setting": "[1]; [4]", "value": "339 ± 10", "unit": "g"}, {"measurement": "Diastolic AP", "setting": "[1]; [4]", "value": "131 ± 17", "unit": "mmHg"}, {"measurement": "Mean AP", "setting": "[1]; [4]", "value": "152 ± 19", "unit": "mmHg"}, {"measurement": "Systolic AP", "setting": "[1]; [4]", "value": "194 ± 23", "unit": "mmHg"}, {"measurement": "AWTS (anterior wall thickness during systole)", "setting": "[1]; [5]", "value": "2.4 ± 0.1", "unit": "mm"}, {"measurement": "FS (fractional shortening)", "setting": "[1]; [5]", "value": "37.6 ± 3.3", "unit": "%"}, {"measurement": "HR (heart rate)", "setting": "[1]; [5]", "value": "348 ± 12", "unit": "bpm"}, {"measurement": "LVEDD (left ventricular end diastolic diameter)", "setting": "[1]; [5]", "value": "7.2 ± 0.1", "unit": "mm"}, {"measurement": "LVESD (left ventricular end systolic diameter)", "setting": "[1]; [5]", "value": "4.5 ± 0.3", "unit": "mm"}, {"measurement": "PWTS (posterior wall thickness during systole)", "setting": "[1]; [5]", "value": "2.6 ± 0.1", "unit": "mm"}, {"measurement": "Weight", "setting": "[1]; [6]", "value": "321 ± 5", "unit": "g"}, {"measurement": "Diastolic AP", "setting": "[1]; [6]", "value": "125 ± 12", "unit": "mmHg"}, {"measurement": "Mean AP", "setting": "[1]; [6]", "value": "143 ± 14", "unit": "mmHg"}, {"measurement": "Systolic AP", "setting": "[1]; [6]", "value": "179 ± 19", "unit": "mmHg"}, {"measurement": "APPV (aortic pulse propagation velocity)", "setting": "[1]; [7]", "value": "4.5 ± 0.4", "unit": "m/s"}, {"measurement": "AWTS (anterior wall thickness during systole)", "setting": "[1]; [7]", "value": "2.3 ± 0.1", "unit": "mm"}, {"measurement": "FS (fractional shortening)", "setting": "[1]; [7]", "value": "39.8 ± 1.1", "unit": "%"}, {"measurement": "HR (heart rate)", "setting": "[1]; [7]", "value": "372 ± 4", "unit": "bpm"}, {"measurement": "LVEDD (left ventricular end diastolic diameter)", "setting": "[1]; [7]", "value": "6.3 ± 0.4", "unit": "mm"}, {"measurement": "LVESD (left ventricular end systolic diameter)", "setting": "[1]; [7]", "value": "3.8 ± 0.3", "unit": "mm"}, {"measurement": "PWTS (posterior wall thickness during systole)", "setting": "[1]; [7]", "value": "2.3 ± 0.1", "unit": "mm"}, {"measurement": "Expression of pro-fibrotic Col1a, Acta1 and Tgfb2 genes in kidneys", "setting": "[2]", "value": "only reduced the Tgfb2 mRNA level"}, {"measurement": "Cleavage by ACE2 within 2 h", "setting": "rACE2", "value": "rapidly and fully hydrolyzed"}, {"measurement": "Cleavage by neprilysin within 2 h", "setting": "rNEP", "value": "rapidly and fully hydrolyzed"}, {"measurement": "Survival", "setting": "[3]", "value": "improved the survival"}]}]}
